Measured values reported in PubChem BioAssay AID2060622 (Molecular Pharmacology Branch, DTP, NCI, 2025).

Tested on: 242566-281-R-J2-PDC complex spheroid viability
Assay: Anticancer human tumor 242566-281-R-J2-PDC patient-derived pancreatic carcinoma cell line growth inhibition [CLK]
Conditions: for IC50: curve of first compound; for viability, T/C: stronger effect = lower value
In short: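 Multi-cell-type spheroids combined patient-derived tumor cells with HUVEC endothelial cells and human mesenchymal stem cells. Paired agents were dosed in half-log steps down from about clinical Cmax, or from 10 microM where Cmax was unknown.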

[1] = second compound 0.0316 µM, first compound 0.0316 µM
[2] = second compound 0.0316 µM, first compound 0.1 µM
[3] = second compound 0.0316 µM, first compound 0.316 µM
[4] = second compound 0.0316 µM, first compound 1 µM
[5] = second compound 0.1 µM, first compound 0.0316 µM
[6] = second compound 0.1 µM, first compound 0.1 µM
[7] = second compound 0.1 µM, first compound 0.316 µM
[8] = second compound 0.1 µM, first compound 1 µM
[9] = second compound 0.316 µM, first compound 0.0316 µM
[10] = second compound 0.316 µM, first compound 0.1 µM
[11] = second compound 0.316 µM, first compound 0.316 µM
[12] = second compound 0.316 µM, first compound 1 µM
[13] = second compound 1 µM, first compound 0.0316 µM
[14] = second compound 1 µM, first compound 0.1 µM
[15] = second compound 1 µM, first compound 0.316 µM
[16] = second compound 1 µM, first compound 1 µM
[17] = second compound 3.16 µM, first compound 0.0316 µM
[18] = second compound 3.16 µM, first compound 0.1 µM
[19] = second compound 3.16 µM, first compound 0.316 µM
[20] = second compound 3.16 µM, first compound 1 µM
[21] = second compound 10 µM, first compound 0.0316 µM
[22] = second compound 10 µM, first compound 0.1 µM
[23] = second compound 10 µM, first compound 0.316 µM
[24] = second compound 10 µM, first compound 1 µM
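Further: spheroids exposed to compounds for 7 days before readout.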
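Wherever viability, T/C is given: 100% = DMSO vehicle control wells.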

Question: How did the IC50 (second compound 0.0316 µM) turn out when `CC(CO)NC(=O)c1cc(-c2ccc(Cl)cc2)nn(-c2cnn(C)c2)c1=O` (centres undefined) + CNC(=O)c1ccc(Nc2nc(OC3CCCC3)c3c(-c4ccc5nc(C)oc5c4)c[nH]c3n2)c(OC)c1 was run?
Answer: > 10000 nM

Question: And the IC50 (second compound 0.1 µM)?
Answer: > 10000 nM

Question: And the IC50 (second compound 0.316 µM)?
Answer: > 10000 nM

Question: And the IC50 (second compound 1 µM)?
Answer: > 10000 nM

Question: And the IC50 (second compound 3.16 µM)?
Answer: > 10000 nM

Question: What about the IC50 (second compound 10 µM) of the same compound?
Answer: > 10000 nM

Question: And the viability, T/C [1]?
Answer: 112%

Question: What about the viability, T/C [2] of the same compound?
Answer: 105%

Question: And the viability, T/C [3]?
Answer: 103%

Question: What about the viability, T/C [4] of the same compound?
Answer: 124%

Question: And the viability, T/C (second compound 0.0316 µM, first compound 3.16 µM)?
Answer: 110%

Question: And the viability, T/C (second compound 0.0316 µM, first compound 10 µM)?
Answer: 104%

Question: And the viability, T/C [5]?
Answer: 105%

Question: And the viability, T/C [6]?
Answer: 107%

Question: What about the viability, T/C [7] of the same compound?
Answer: 93%

Question: What about the viability, T/C [8] of the same compound?
Answer: 102%

Question: And the viability, T/C (second compound 0.1 µM, first compound 3.16 µM)?
Answer: 103%

Question: And the viability, T/C (second compound 0.1 µM, first compound 10 µM)?
Answer: 96.3%

Question: What about the viability, T/C [9] of the same compound?
Answer: 96.1%

Question: What about the viability, T/C [10] of the same compound?
Answer: 90.7%

Question: And the viability, T/C [11]?
Answer: 83.1%

Question: What about the viability, T/C [12] of the same compound?
Answer: 95.9%

Question: What about the viability, T/C (second compound 0.316 µM, first compound 3.16 µM) of the same compound?
Answer: 101%

Question: What about the viability, T/C (second compound 0.316 µM, first compound 10 µM) of the same compound?
Answer: 86%

Question: What about the viability, T/C [13] of the same compound?
Answer: 76%

Question: And the viability, T/C [14]?
Answer: 65%

Question: What about the viability, T/C [15] of the same compound?
Answer: 75.6%

Question: And the viability, T/C [16]?
Answer: 79.2%

Question: What about the viability, T/C (second compound 1 µM, first compound 3.16 µM) of the same compound?
Answer: 86.2%

Question: And the viability, T/C (second compound 1 µM, first compound 10 µM)?
Answer: 89.4%

Question: And the viability, T/C [17]?
Answer: 60.1%

Question: And the viability, T/C [18]?
Answer: 62.5%

Question: And the viability, T/C [19]?
Answer: 59.1%

Question: And the viability, T/C [20]?
Answer: 58.9%

Question: And the viability, T/C (second compound 3.16 µM, first compound 3.16 µM)?
Answer: 63%

Question: What about the viability, T/C (second compound 3.16 µM, first compound 10 µM) of the same compound?
Answer: 69.2%

Question: What about the viability, T/C [21] of the same compound?
Answer: 55.6%

Question: What about the viability, T/C [22] of the same compound?
Answer: 55.8%

Question: And the viability, T/C [23]?
Answer: 54.1%

Question: And the viability, T/C [24]?
Answer: 58.8%

Question: And the viability, T/C (second compound 10 µM, first compound 3.16 µM)?
Answer: 62.7%

Question: And the viability, T/C (second compound 10 µM, first compound 10 µM)?
Answer: 70.2%

Question: Which IC50 (second compound 0.0316 µM) does the source give for `COc1c(OCCCN2CCOCC2)ccc2c3n(c(=NC(=O)c4cnc(N)nc4)nc12)CCN3` + CNC(=O)c1ccc(Nc2nc(OC3CCCC3)c3c(-c4ccc5nc(C)oc5c4)c[nH]c3n2)c(OC)c1 here?
Answer: 50.9 nM

Question: And the IC50 (second compound 0.1 µM)?
Answer: 52 nM

Question: What about the IC50 (second compound 0.316 µM) of the same compound?
Answer: 29 nM

Question: What about the IC50 (second compound 1 µM) of the same compound?
Answer: 8.6 nM

Question: What about the IC50 (second compound 3.16 µM) of the same compound?
Answer: < 3.16 nM

Question: What about the IC50 (second compound 10 µM) of the same compound?
Answer: < 3.16 nM

Question: And the viability, T/C (second compound 0.0316 µM, first compound 0.00316 µM)?
Answer: 104%

Question: And the viability, T/C (second compound 0.0316 µM, first compound 0.01 µM)?
Answer: 86.1%

Question: What about the viability, T/C [1] of the same compound?
Answer: 64.7%

Question: What about the viability, T/C [2] of the same compound?
Answer: 31.1%

Question: What about the viability, T/C [3] of the same compound?
Answer: 19.5%

Question: And the viability, T/C [4]?
Answer: 14.2%

Question: What about the viability, T/C (second compound 0.1 µM, first compound 0.00316 µM) of the same compound?
Answer: 72.9%

Question: What about the viability, T/C (second compound 0.1 µM, first compound 0.01 µM) of the same compound?
Answer: 98.3%

Question: What about the viability, T/C [5] of the same compound?
Answer: 64.4%

Question: And the viability, T/C [6]?
Answer: 29.2%

Question: What about the viability, T/C [7] of the same compound?
Answer: 18.8%

Question: What about the viability, T/C [8] of the same compound?
Answer: 14.4%

Question: And the viability, T/C (second compound 0.316 µM, first compound 0.00316 µM)?
Answer: 81.4%

Question: And the viability, T/C (second compound 0.316 µM, first compound 0.01 µM)?
Answer: 70.9%

Question: And the viability, T/C [9]?
Answer: 48.8%

Question: And the viability, T/C [10]?
Answer: 23.9%

Question: And the viability, T/C [11]?
Answer: 15.1%

Question: What about the viability, T/C [12] of the same compound?
Answer: 10.7%

Question: And the viability, T/C (second compound 1 µM, first compound 0.00316 µM)?
Answer: 61.5%

Question: What about the viability, T/C (second compound 1 µM, first compound 0.01 µM) of the same compound?
Answer: 47%

Question: And the viability, T/C [13]?
Answer: 31.2%

Question: And the viability, T/C [14]?
Answer: 14.6%

Question: What about the viability, T/C [15] of the same compound?
Answer: 9.5%

Question: What about the viability, T/C [16] of the same compound?
Answer: 10.9%

Question: What about the viability, T/C (second compound 3.16 µM, first compound 0.00316 µM) of the same compound?
Answer: 42.9%

Question: And the viability, T/C (second compound 3.16 µM, first compound 0.01 µM)?
Answer: 33.5%

Question: What about the viability, T/C [17] of the same compound?
Answer: 24.6%

Question: What about the viability, T/C [18] of the same compound?
Answer: 12.5%

Question: And the viability, T/C [19]?
Answer: 9.35%

Question: And the viability, T/C [20]?
Answer: 10.2%

Question: And the viability, T/C (second compound 10 µM, first compound 0.00316 µM)?
Answer: 39.3%

Question: And the viability, T/C (second compound 10 µM, first compound 0.01 µM)?
Answer: 32.5%

Question: And the viability, T/C [21]?
Answer: 25%

Question: What about the viability, T/C [22] of the same compound?
Answer: 11.4%

Question: And the viability, T/C [23]?
Answer: 8.81%

Question: And the viability, T/C [24]?
Answer: 10.2%
